Measured values from patent US20050266088A1, “Formulation for fast dissolution of lipophilic compounds” (Rijksuniversiteit Groningen, priority 2002, published 2005).

Assay: Dissolution experiments on tablets (Prolabo dissolution apparatus)
Assay type: physicochemical
Conditions: for dissolution rate of the sugar matrix (Anthrone assay): tablets with diazepam, water, 37° C., 100 rpm
Method: After compaction the tablets were weighed and subsequently submitted to dissolution experiments.
Dissolution was performed on a Prolabo dissolution apparatus, Rowa Techniek B.V. All experiments were conducted at 37° C. in 1000 mL under constant stirring with 100 rpm. Tablets prepared from physical mixtures and solid dispersions were analysed in triplicate.
To determine the sugar concentrations the Anthrone assay was used. (Scott et al. 1953) Samples were taken at appropriate intervals during the dissolution. […] Due to the enthalpy of mixing, the sample was heated to its boiling point. The boiling mixture was then cooled to room temperature. After 45 minutes the sample was vortexed and […] of sample was analysed in the plate reader at 630 nm. […] In every Anthrone assay a calibration curve of the appropriate sugar in the appropriate medium was established.

Row | SMILES | release of drug from physical mixture tablets | release of drug from solid dispersion tablets | dissolution rate of the sugar matrix (Anthrone assay)
1 | CN1C(=O)CN=C(c2ccccc2)c2cc(Cl)ccc21 [diazepam, Diazepam] | fast compared to the solid dispersions | fast release | 
2 | OC[C@H]1O[C@@](CO)(O[C@H]2O[C@H](CO)[C@@H](O)[C@H](O)[C@H]2O)[C@@H](O)[C@@H]1O [sucrose] |  |  | dissolve faster compared to the inulins
3 | OC[C@H]1O[C@H](O[C@H]2O[C@H](CO)[C@@H](O)[C@H](O)[C@H]2O)[C@H](O)[C@@H](O)[C@@H]1O [trehalose] |  |  | dissolve faster compared to the inulins
